# Experimental data as given in patent US10662195B2, “Protein kinase conjugates and inhibitors” (Celgene Avilomics Research, Inc., priority 2009, dated 2020).
# pIC50: −log10 of the molar value. Read-outs that look alike come from different tables or passages of the source.
# Assays:
# FLT3 = molecular target: T1, FLT3 (Homo sapiens, UniProt P36888); experiment: FLT-3 Omnia continuous-read kinase assay; format: biochemical
# T1 construct: purchased PV3182
# T1 sequence (P36888 27-993): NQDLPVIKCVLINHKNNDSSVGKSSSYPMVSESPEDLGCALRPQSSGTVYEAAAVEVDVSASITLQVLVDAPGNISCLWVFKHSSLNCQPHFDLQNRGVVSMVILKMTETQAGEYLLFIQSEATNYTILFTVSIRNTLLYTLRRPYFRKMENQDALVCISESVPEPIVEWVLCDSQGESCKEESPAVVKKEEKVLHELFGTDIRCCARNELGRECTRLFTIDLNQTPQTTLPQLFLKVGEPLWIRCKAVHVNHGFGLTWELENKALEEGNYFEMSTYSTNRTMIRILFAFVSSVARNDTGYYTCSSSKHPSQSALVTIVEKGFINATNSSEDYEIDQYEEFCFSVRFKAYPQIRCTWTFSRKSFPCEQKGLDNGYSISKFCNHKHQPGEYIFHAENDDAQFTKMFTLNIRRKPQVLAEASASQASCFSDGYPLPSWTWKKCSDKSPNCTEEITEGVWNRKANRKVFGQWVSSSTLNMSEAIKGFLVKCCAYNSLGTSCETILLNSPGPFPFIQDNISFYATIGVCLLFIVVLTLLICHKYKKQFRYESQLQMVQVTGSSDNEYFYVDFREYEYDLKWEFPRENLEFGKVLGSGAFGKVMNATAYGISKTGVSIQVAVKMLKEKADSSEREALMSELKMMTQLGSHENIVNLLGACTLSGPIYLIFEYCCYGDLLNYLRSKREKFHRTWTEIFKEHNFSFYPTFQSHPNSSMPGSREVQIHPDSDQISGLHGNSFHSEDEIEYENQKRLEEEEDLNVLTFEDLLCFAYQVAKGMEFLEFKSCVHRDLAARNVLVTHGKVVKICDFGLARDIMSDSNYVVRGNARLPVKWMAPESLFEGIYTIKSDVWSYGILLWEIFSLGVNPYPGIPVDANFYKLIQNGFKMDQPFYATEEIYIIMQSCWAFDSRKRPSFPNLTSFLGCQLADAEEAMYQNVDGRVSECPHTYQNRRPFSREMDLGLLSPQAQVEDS
# Description: (§1) A. KDR and FLT-3 Omnia Assay for Potency Assessment:
# (§2) The protocol below describes a continuous-read kinase assay to measure inherent potency of Avila Therapeutics' compounds against active KDR and FLT-3 enzymes. The assay was performed substantially as described by the vendor (Invitrogen, Carlsbad, Calif.; http://www.invitrogen.com/content.cfm?pageid=11338.)
# (§3) Briefly, 10× stocks of KDR from Invitrogen or BPS Bioscience (PV3660 or 40301) and FLT-3 (PV3182) enzymes, 1.13×ATP (AS001A) and Y9-Sox or Y12-Sox peptide substrates (KCZ1001) were prepared in 1× kinase reaction buffer consisting of 20 mM Tris, pH 7.5, 5 mM MgCl2, 1 mM EGTA, 5 mM β-glycerophosphate, 5% glycerol (10× stock, KB002A) and 0.2 mM DTT (DS001A). 5 μL of enzyme were pre-incubated in a Corning (#3574) 384-well, white, non-binding surface microtiter plate (Corning, N.Y.) for 30 min at 27° C. with a 0.5 μL volume of 50% DMSO and serially diluted compounds prepared in 50% DMSO. Kinase reactions were started with the addition of 45 μL of the ATP/Y9 or Y5-Sox peptide substrate mix and monitored every 30-90 seconds for 60 minutes at λex360/λem485 in a Synergy^4 plate reader from BioTek (Winooski, Vt.). At the conclusion of each assay, progress curves from each well were examined for linear reaction kinetics and fit statistics (R^2, 95% confidence interval, absolute sum of squares). Initial velocity (0 minutes to 20+ minutes) from each reaction was determined from the slope of a plot of relative fluorescence units vs time (minutes) and then plotted against inhibitor concentration to estimate IC50 from Log [Inhibitor] vs Response, Variable Slope model in GraphPad Prism from GraphPad Software (San Diego, Calif.).
# [FLT-3]=15 nM, [ATP]=500 μM and [Y5-Sox peptide]=10 μM (ATP KMapp=470 μM)
# (§4) The reported IC50_APP and IC50 values are in units of nM.
# KDR = KDR (Homo sapiens, UniProt P35968); experiment: KDR Omnia continuous-read kinase assay; format: biochemical; design: purchased Invitrogen or BPS Bioscience PV3660 or 40301
# Sequence of KDR (P35968 20-1356): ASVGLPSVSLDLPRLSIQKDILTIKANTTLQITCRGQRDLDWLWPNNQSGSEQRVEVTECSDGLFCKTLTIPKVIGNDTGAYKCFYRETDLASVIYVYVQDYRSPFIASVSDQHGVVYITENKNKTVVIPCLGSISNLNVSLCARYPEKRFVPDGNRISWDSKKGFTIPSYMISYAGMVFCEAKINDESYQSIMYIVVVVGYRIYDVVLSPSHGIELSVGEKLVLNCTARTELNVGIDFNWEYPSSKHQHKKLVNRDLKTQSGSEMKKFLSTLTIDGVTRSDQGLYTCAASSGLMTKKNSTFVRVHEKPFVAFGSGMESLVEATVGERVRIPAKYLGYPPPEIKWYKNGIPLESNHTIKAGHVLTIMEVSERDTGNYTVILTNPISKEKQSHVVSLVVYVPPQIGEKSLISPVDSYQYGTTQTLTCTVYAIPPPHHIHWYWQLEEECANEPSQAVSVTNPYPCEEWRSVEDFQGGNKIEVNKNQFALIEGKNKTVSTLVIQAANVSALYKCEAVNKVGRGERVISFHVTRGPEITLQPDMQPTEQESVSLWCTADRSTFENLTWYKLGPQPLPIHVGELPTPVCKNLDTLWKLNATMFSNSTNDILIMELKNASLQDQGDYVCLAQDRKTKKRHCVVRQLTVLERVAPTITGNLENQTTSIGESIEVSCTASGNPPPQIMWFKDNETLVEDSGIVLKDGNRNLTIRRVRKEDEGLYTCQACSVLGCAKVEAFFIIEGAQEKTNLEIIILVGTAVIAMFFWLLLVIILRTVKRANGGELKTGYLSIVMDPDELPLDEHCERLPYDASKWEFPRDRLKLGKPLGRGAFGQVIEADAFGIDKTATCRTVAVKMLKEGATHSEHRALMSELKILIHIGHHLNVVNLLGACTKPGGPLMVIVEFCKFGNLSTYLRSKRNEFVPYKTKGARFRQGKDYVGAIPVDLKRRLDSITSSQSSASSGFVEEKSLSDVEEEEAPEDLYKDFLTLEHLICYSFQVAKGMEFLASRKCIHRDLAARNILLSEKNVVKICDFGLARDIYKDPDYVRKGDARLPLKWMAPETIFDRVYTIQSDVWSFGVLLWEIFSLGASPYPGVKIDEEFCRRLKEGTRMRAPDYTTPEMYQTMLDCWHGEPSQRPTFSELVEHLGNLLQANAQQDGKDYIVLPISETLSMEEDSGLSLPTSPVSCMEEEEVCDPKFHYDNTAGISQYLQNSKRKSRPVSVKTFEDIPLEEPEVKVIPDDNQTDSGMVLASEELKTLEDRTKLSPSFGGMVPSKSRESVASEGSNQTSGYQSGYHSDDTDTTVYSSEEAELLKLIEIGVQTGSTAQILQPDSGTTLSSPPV
# Description: as §1, §2
# as §3, with “Calif.). […]” for “Calif.).”
# as §4
# BTK = BTK (Homo sapiens, UniProt Q06187); experiment: Omnia assay for potency assessment against BTK; format: biochemical
# Sequence of BTK (Q06187 whole entry): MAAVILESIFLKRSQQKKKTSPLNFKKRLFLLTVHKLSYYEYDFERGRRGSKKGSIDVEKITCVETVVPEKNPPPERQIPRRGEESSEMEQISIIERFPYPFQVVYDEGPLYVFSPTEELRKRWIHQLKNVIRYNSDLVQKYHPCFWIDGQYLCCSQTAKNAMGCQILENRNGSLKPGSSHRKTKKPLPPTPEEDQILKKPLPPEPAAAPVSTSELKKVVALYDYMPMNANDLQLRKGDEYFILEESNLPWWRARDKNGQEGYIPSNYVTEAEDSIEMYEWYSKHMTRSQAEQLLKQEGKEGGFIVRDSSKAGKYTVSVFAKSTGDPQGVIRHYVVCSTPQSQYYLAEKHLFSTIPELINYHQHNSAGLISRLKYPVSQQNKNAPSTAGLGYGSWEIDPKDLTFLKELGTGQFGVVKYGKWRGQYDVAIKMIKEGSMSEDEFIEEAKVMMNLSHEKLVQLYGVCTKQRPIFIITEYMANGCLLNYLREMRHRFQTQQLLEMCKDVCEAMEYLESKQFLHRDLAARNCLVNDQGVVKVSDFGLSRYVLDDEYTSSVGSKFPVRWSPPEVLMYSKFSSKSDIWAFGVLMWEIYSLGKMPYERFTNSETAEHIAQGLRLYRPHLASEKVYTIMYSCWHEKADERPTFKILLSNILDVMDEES
# Description: B. Omnia Assay Protocol for Potency Assessment Against BTK
# Below describes the protocol using EGFR-WT and EGFR-T790M/L858R and the protocol BTK-optimized reagent conditions then follow.
# The mechanics of the assay platform are best described by the vendor (Invitrogen, Carlsbad, Calif.) on their website at the following URL: http://www.invitrogen.com/content.cfm?pageid=11338 or http://www.invitrogen.com/site/us/en/home/Products-and-Services/Applications/Drug-Discovery/Target-and-Lead-Identification-and-Validation/KinaseBiology/KB-Misc/Biochemical-Assays/Omnia-Kinase-Assays.html.
# Briefly, 10× stocks of EGFR-WT (PV3872) from Invitrogen and EGFR-T790M/L858R (40350) from BPS Bioscience, San Diego, Calif., 1.13×ATP (AS001A) and appropriate Tyr-Sox conjugated peptide substrates (KCZ1001) were prepared in 1× kinase reaction buffer consisting of 20 mM Tris, pH 7.5, 5 mM MgCl2, 1 mM EGTA, 5 mM β-glycerophosphate, 5% glycerol (10× stock, KB002A) and 0.2 mM DTT (DS001A). 5 μL of each enzyme were pre-incubated in a Corning (#3574) 384-well, white, non-binding surface microtiter plate (Corning, N.Y.) for 30 min. at 27° C. with a 0.5 μL volume of 50% DMSO and serially diluted compounds prepared in 50% DMSO. Kinase reactions were started with the addition of 45 μL of the ATP/Tyr-Sox peptide substrate mix and monitored every 30-90 seconds for 60 minutes at λex360/λem485 in a Synergy^4 plate reader from BioTek (Winooski, Vt.). At the conclusion of each assay, progress curves from each well were examined for linear reaction kinetics and fit statistics (R^2, 95% confidence interval, absolute sum of squares). Initial velocity (0 minutes to ˜30 minutes) from each reaction was determined from the slope of a plot of relative fluorescence units vs time (minutes) and then plotted against inhibitor concentration to estimate IC50 from log [Inhibitor] vs Response, Variable Slope model in GraphPad Prism from GraphPad Software (San Diego, Calif.).
# The modified BTK-optimized reagent conditions for the above protocol are:
# [BTK]=5 nM, [ATP]=[…], [Y5-Sox]=[…] (ATP KMapp˜[…]).
# as §4
# CKIT = CKIT (Homo sapiens, UniProt P10721); experiment: c-Kit Omnia kinase assay; format: biochemical; settings: read-out: IC50_APP CKIT
# Sequence of CKIT (P10721 26-976): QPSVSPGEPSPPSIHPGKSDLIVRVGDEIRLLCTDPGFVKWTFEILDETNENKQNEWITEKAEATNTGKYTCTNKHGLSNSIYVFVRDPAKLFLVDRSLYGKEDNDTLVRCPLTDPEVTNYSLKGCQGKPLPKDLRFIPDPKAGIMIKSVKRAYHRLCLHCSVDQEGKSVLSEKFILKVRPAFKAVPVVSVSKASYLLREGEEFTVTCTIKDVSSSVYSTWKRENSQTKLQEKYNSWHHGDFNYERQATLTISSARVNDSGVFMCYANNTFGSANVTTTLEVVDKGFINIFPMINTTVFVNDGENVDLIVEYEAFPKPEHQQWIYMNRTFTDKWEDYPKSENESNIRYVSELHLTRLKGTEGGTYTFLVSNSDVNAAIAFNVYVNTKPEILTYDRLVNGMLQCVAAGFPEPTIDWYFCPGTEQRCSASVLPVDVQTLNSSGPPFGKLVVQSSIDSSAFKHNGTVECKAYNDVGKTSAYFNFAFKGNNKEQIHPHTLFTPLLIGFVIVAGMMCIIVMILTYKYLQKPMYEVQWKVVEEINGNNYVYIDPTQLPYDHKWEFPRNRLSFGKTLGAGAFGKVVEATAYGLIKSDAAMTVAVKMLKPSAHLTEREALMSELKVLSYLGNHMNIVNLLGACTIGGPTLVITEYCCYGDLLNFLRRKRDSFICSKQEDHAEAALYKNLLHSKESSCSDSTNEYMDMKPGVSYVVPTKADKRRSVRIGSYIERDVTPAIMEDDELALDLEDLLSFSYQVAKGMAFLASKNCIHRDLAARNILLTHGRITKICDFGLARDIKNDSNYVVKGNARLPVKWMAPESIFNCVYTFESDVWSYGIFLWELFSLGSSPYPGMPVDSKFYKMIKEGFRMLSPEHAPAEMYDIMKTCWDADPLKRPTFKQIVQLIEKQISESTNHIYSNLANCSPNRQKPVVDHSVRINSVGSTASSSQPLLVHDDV
# CKIT D816V = CKIT D816V (Homo sapiens, UniProt P10721, D816V); experiment: c-Kit mutant Omnia kinase assay; format: biochemical; settings: read-out: IC50_APP CKIT D816V
# Sequence of CKIT D816V (P10721 26-976 D816V): as the sequence (P10721 26-976) above, with D791V counted along it
# FAK (PTK2) = FAK (PTK2) (Homo sapiens, UniProt Q05397); experiment: Mass spectral analysis of intact FAK after incubation with compound; format: binding; settings: 1 hr, 10× excess of compound to protein, intact protein MALDI
# Sequence of FAK (PTK2) (Q05397 whole entry): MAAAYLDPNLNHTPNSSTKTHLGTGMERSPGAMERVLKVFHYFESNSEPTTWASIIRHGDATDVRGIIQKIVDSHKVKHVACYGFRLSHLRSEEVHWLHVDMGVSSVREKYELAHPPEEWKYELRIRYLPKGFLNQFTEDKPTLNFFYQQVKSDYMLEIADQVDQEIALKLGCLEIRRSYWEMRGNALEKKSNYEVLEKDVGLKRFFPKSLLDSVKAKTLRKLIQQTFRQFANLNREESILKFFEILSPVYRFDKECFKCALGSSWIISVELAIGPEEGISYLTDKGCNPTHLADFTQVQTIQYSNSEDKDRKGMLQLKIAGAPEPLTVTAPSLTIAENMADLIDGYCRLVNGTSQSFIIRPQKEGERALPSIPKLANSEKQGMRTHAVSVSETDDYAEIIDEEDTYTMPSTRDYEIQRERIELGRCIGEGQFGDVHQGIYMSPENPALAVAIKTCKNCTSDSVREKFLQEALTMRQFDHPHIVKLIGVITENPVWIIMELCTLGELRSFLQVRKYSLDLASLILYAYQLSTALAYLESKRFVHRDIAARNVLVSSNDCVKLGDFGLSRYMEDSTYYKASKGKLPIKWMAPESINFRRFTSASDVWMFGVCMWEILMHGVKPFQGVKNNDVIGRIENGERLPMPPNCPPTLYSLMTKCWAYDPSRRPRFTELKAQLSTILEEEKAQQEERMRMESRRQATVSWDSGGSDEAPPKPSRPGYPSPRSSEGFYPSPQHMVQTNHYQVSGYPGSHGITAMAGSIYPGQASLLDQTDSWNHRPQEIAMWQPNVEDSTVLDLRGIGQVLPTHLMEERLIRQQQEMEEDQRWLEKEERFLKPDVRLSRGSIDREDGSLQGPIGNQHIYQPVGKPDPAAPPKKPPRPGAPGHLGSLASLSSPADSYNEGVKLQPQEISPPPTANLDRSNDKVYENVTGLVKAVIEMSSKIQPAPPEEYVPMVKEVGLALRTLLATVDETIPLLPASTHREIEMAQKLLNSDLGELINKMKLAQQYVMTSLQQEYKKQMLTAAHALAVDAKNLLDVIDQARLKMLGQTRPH
# Description: Intact FAK (PTK2) was incubated for 1 hr at a 10× fold access of compound IV-29 to protein. 3 ul aliquots of the samples were diluted with 10 ul of 0.1% TFA prior to micro C4 ZipTipping directly onto the MALDI target using Sinapinic acid as the desorption matrix (10 mg/ml in 0.1% TFA:Acetonitrile 50:50). Mass spec analysis was run on intact FAK (PTK2) protein (m/z 146,672 Da), and on FAK that was incubated with compound IV-29 (mw=669.2).
# [1] = 30 min pre-incubation, [ATP]=500 μM, read-out: IC50_APP FLT3
# [2] = 30 min pre-incubation, read-out: IC50_APP KDR
# [3] = 30 min pre-incubation, read-out: IC50_APP BTK
# [4] = reversible reference compounds, read-out: IC50 KDR
# [5] = reversible reference compounds, read-out: IC50 BTK
smiles,measurement,setting,value
"C=CC(=O)Nc1ccc(Sc2nc(Nc3ncc(C#N)s3)cc(N3CCN(C)CC3)n2)cc1 [II-1, N-(4-(4-(5-Cyanothiazol-2-ylamino)-6-(4-methylpiperazin-1-yl)pyrimidin-2-ylthio)phenyl)acrylamide]",pIC50,FLT3; [1],8.50
same,pIC50,KDR; [2],7.41
same,pIC50,BTK; [3],5.21
CC#CC(=O)N1CCC(Sc2nc(Nc3ncc(C#N)s3)cc(N3CCN(C)CC3)n2)CC1 [II-3],pIC50,KDR; [2],6.54
same,pIC50,BTK; [3],6.34
"C=CC(=O)NCCSc1nc(Nc2ncc(C#N)s2)cc(N2CCN(C)CC2)n1 [II-4, N-(2-(4-(5-cyanothiazol-2-ylamino)-6-(4-methylpiperazin-1-yl)pyrimidin-2-ylthio)ethyl)acrylamide]",pIC50,KDR; [2],6.95
same,pIC50,BTK; [3],5.29
CN(C)C/C=C/C(=O)N1CCC(Sc2nc(Nc3ncc(C#N)s3)cc(N3CCN(C)CC3)n2)CC1 [II-5],pIC50,KDR; [2],7.40
same,pIC50,BTK; [3],6.98
"C=CC(=O)Nc1ccc(Sc2nc(Nc3cc(C)n[nH]3)cc(N3CCN(C)CC3)n2)cc1 [II-53, N-(4-(4-(3-Methyl-1H-pyrazol-5-ylamino)-6-(4-methylpiperiazin-1-yl)pyrimidin-2ylthio)phenyl)acrylamide]",pIC50,CKIT,6.94
same,pIC50,FLT3; [1],8.42
same,pIC50,CKIT D816V,6.90
same,pIC50,KDR; [2],7.82
"C=CC(=O)Nc1ccc(S(=O)(=O)N2CCN(c3ccc(Nc4ncc(Cl)c(Nc5ccccc5C(=O)NC)n4)c(OC)c3)CC2)cc1 [IV-31, 2-(2-{4-[4-(4-Acryloylamino-benzenesulfonyl)-piperazin-1-yl]-2-methoxy-phenylamino}-5-chloro-pyrimidin-4-ylamino)-N-methyl-benzamide]","modification of FAK (PTK2) by compound, mass spec",FAK (PTK2),partial modification of FAK
"CCC(=O)Nc1ccc(Sc2nc(Nc3ncc(C#N)s3)cc(N3CCN(C)CC3)n2)cc1 [Reversible Reference Compound 1, N-(4-(4-(5-Cyanothiazol-2-ylamino)-6-(4-methylpiperazin-1-yl)pyrimidin-2-ylthio)phenyl)propionamide, reference compound]",pIC50,"FLT3; reversible reference compounds, read-out: IC50 FLT3",8.23
same,pIC50,KDR; [4],6.60
same,pIC50,BTK; [5],5.79
"CCC(=O)N1CCC(Sc2nc(Nc3ncc(C#N)s3)cc(N3CCN(C)CC3)n2)CC1 [Reversible Reference Compound 2, 2-(2-(1-Propionylpiperidin-4-ylthio)-6-(4-methylpiperazin-1-yl)pyrimidin-4-ylamino)thiazole-5-carbonitrile, reference compound]",pIC50,KDR; [4],7.02
same,pIC50,BTK; [5],6.74
CNC(=O)c1cc(Oc2ccc(NC(=O)Nc3ccc(NC(=O)/C=C/CN(C)C)c(C(F)(F)F)c3)cc2)ccn1 [XVIII-12],pIC50,CKIT,7.98
same,pIC50,FLT3; [1],8.97
same,pIC50,CKIT D816V,8.60
same,pIC50,KDR; [2],6.83
C=CC(=O)Nc1cc(NC(=O)Nc2ccc(Oc3ccnc(C(=O)NC)c3)cc2)ccc1Cl [XVIII-15],pIC50,KDR; [2],6.33
"C=CC(=O)N(C)c1ccc(NC(=O)Nc2ccc(Oc3ccnc(C(=O)NC)c3)cc2)cc1 [XVIII-16, 4-(4-(3-(4-(N-methylacrylamido)phenyl)ureido)phenoxy)-N-methylpicolinamide]",pIC50,KDR; [2],5.87
